# Tests used:
# Type in all cases: in vivo, human
# [1] = Ankle/brachial artery pressure ratio (ABPI) in patient with intermittent claudication; details: left leg; for ankle/brachial artery pressure ratio (ABPI): margin of error 0.1
# Experimental: (§1) The stressed blood treatment used in the study involves the collection of 10 ml of a patient's venous blood into 2-ml of sodium citrate 3.13% as anticoagulant. The blood sample is transferred to a sterile, disposable low-density polyethylene vessel (model #V7002) for ex vivo treatment and is then exposed to the following three stimuli: • 1) An elevated temperature of 42.5° C.±1.0° C. at steady state controlled and monitored with a thermocouple; • 2) a gas mixture of medical oxygen containing 14.5±1.0 ug/ml of ozone, at a flow rate of 240±24 ml/min for 3 minutes; • 3) Ultra-violet light at a wavelength of 253.7 nm, and a total energy of 2.0 joules/cm^2.
# (§2) The ex vivo treatment of the patient's blood sample is performed within a Blood Treatment Unit (model #V7001), generally described in U.S. Pat. No. 4,968,483 Mueller. The Unit regulates and monitors these physicochemical agents. The temperature of the blood is raised to 42.5° C., a process that takes up to 8 minutes depending upon the starting temperature of the blood sample. Before this temperature is reached the UV lights turn on, so that they reach maximum output by the time that the gas flow is initiated, which occurs when the temperature of the blood reaches 42.5° C. The total time of exposure to UV light is about 9 minutes. The gas mixture is bubbled through the blood sample at a flow rate of 240±24 ml/min for a period of 3 minutes while the temperature of the blood is maintained and UV irradiation continues. At the end of the treatment with the three stimuli (stressors), the blood is allowed to settle for 7 minutes. The device then signals that the treatment has been completed successfully. The entire process takes about 20 minutes.
# A person with intermittent claudication (a cramping pain caused by arterial obstruction and indicative of the presence of a relatively advanced stage of atherosclerosis) in their left leg, was administered fluvastatin 20 mg. daily for hypercholesterolemia. Their initial ankle/brachial artery pressure ratio (ABPI) in the left leg was 0.60, normal values being greater than 0.9. […]
# [2] = Claudication distance in patient with peripheral arterial occlusive disease; details: regular daily lovastatin plus 10 i.m. treatments of 10 ml autologous stressed blood over 14 weeks
# Experimental: (§3) In a separate investigation, a patient suffering from peripheral arterial occlusive disease (a consequence of atherosclerosis) and receiving a regular, normal daily dose of lovastatin received 10 treatments of autologous stressed blood prepared as described above (10 ml aliquots, administered intramuscularly) over a 14-week period. As a result, their posterior tibial/brachial pressure index increased from 0.69 to 0.85, a very significant change.
# [3] = Posterior tibial/brachial and dorsalis/brachial pressure index in patient with peripheral arterial occlusive disease
# Experimental: as §1, §2, §3
# [4] = regular daily lovastatin plus 10 i.m. treatments of 10 ml autologous stressed blood over 14 weeks
# [5] = regular daily lovastatin, before stressed blood treatments
SMILES,ankle/brachial artery pressure ratio (ABPI) ([1]; fluvastatin 20 mg daily plus 9 i.m. treatments with 10 ml stressed autologous blood over 3 weeks),"ankle/brachial artery pressure ratio (ABPI) ([1]; fluvastatin 20 mg daily plus stressed blood, 2 months after the end of treatment schedule)","initial ankle/brachial artery pressure ratio (ABPI) ([1]; fluvastatin 20 mg daily, before stressed blood treatments, normal values greater than 0.9)",claudication distance (walking distance before experiencing cramping pain in the legs) [2],"dorsalis (foot artery)/brachial pressure index [3, 4]","posterior tibial/brachial pressure index [3, 4]","dorsalis (foot artery)/brachial pressure index [3, 5]","posterior tibial/brachial pressure index [3, 5]"
CC(C)n1c(/C=C/C(O)CC(O)CC(=O)O)c(-c2ccc(F)cc2)c2ccccc21 (centres unmarked) [fluvastatin],0.66,0.75,0.60,,,,,
CC[C@H](C)C(=O)O[C@H]1C[C@@H](C)C=C2C=C[C@H](C)[C@H](CC[C@@H]3C[C@@H](O)CC(=O)O3)[C@H]21 [lovastatin],,,,improved,0.85,0.85,0.77,0.69
